Source: ChEMBL document CHEMBL3045319, “Synthesis, antitumor activity, and structureactivity relationship of some 4H-pyrano[3,2-h]quinoline and 7H-pyrimido[4,5:6,5]pyrano[3,2-h]quinoline derivatives” (Med Chem Res, 2013)
≈ marks a conversion by molar mass, not a printed value.

Key:
MCF7 [1] = assay: Cytotoxicity against Homo sapiens (human) MCF7 cells assessed as cell viability at 1.56 ug/ml after 48 hr by MTT assay relative to control; format: functional; settings: MCF7, 48 h, read-out: Activity
[2] = Cytotoxicity against Homo sapiens (human) HCT cells after 48 hr by MTT assay; format: functional, cell-based
[3] = Cytotoxicity against Homo sapiens (human) HCT cells assessed as cell viability at 12.5 ug/ml after 48 hr by MTT assay relative to control; format: functional; settings: read-out: Activity
MCF7 [4] = assay: Cytotoxicity against Homo sapiens (human) MCF7 cells assessed as cell viability at 3.125 ug/ml after 48 hr by MTT assay relative to control; format: functional; settings: MCF7, 48 h, read-out: Activity
[5] = Cytotoxicity against Homo sapiens (human) HCT cells assessed as cell viability at 50 ug/ml after 48 hr by MTT assay relative to control; format: functional; settings: read-out: Activity
[6] = Cytotoxicity against Homo sapiens (human) HCT cells assessed as cell viability at 3.125 ug/ml after 48 hr by MTT assay relative to control; format: functional; settings: read-out: Activity
MCF7 [7] = assay: Cytotoxicity against Homo sapiens (human) MCF7 cells after 48 hr by MTT assay; format: functional, cell-based; settings: MCF7, 48 h
[8] = Cytotoxicity against Homo sapiens (human) HCT cells assessed as cell viability at 1.56 ug/ml after 48 hr by MTT assay relative to control; format: functional; settings: read-out: Activity
HepG2 [9] = assay: Cytotoxicity against Homo sapiens (human) HepG2 cells assessed as cell viability at 6.25 ug/ml after 48 hr by MTT assay relative to control; format: functional; settings: HepG2, 48 h, read-out: Activity
HepG2 [10] = assay: Cytotoxicity against Homo sapiens (human) HepG2 cells assessed as cell viability at 3.125 ug/ml after 48 hr by MTT assay relative to control; format: functional; settings: HepG2, 48 h, read-out: Activity
[11] = Cytotoxicity against Homo sapiens (human) HCT cells assessed as cell viability at 25 ug/ml after 48 hr by MTT assay relative to control; format: functional; settings: read-out: Activity
MCF7 [12] = assay: Cytotoxicity against Homo sapiens (human) MCF7 cells assessed as cell viability at 50 ug/ml after 48 hr by MTT assay relative to control; format: functional; settings: MCF7, 48 h, read-out: Activity
[13] = Cytotoxicity against Homo sapiens (human) HCT cells assessed as cell viability at 6.25 ug/ml after 48 hr by MTT assay relative to control; format: functional; settings: read-out: Activity
MCF7 [14] = assay: Cytotoxicity against Homo sapiens (human) MCF7 cells assessed as cell viability at 12.5 ug/ml after 48 hr by MTT assay relative to control; format: functional; settings: MCF7, 48 h, read-out: Activity
MCF7 [15] = assay: Cytotoxicity against Homo sapiens (human) MCF7 cells assessed as cell viability at 25 ug/ml after 48 hr by MTT assay relative to control; format: functional; settings: MCF7, 48 h, read-out: Activity
HepG2 [16] = assay: Cytotoxicity against Homo sapiens (human) HepG2 cells assessed as cell viability at 25 ug/ml after 48 hr by MTT assay relative to control; format: functional; settings: HepG2, 48 h, read-out: Activity
HepG2 [17] = assay: Cytotoxicity against Homo sapiens (human) HepG2 cells after 48 hr by MTT assay; format: functional, cell-based; settings: Homo sapiens, HepG2, 48 h; read-out: IC50
HepG2 [18] = assay: Cytotoxicity against Homo sapiens (human) HepG2 cells assessed as cell viability at 50 ug/ml after 48 hr by MTT assay relative to control; format: functional; settings: HepG2, 48 h, read-out: Activity
MCF7 [19] = assay: Cytotoxicity against Homo sapiens (human) MCF7 cells assessed as cell viability at 6.25 ug/ml after 48 hr by MTT assay relative to control; format: functional; settings: MCF7, 48 h, read-out: Activity
HepG2 [20] = assay: Cytotoxicity against Homo sapiens (human) HepG2 cells assessed as cell viability at 12.5 ug/ml after 48 hr by MTT assay relative to control; format: functional; settings: HepG2, 48 h, read-out: Activity
HepG2 [21] = assay: Cytotoxicity against Homo sapiens (human) HepG2 cells assessed as cell viability at 1.56 ug/ml after 48 hr by MTT assay relative to control; format: functional; settings: HepG2, 48 h, read-out: Activity

SMILES | viability at 1.56 µg/mL (MCF7 [1]) [%] | IC50 [2] [µg/mL] | viability at 12.5 µg/mL [3] [%] | viability at 3.125 µg/mL (MCF7 [4]) [%] | viability at 50 µg/mL [5] [%] | viability at 3.125 µg/mL [6] [%] | IC50 (MCF7 [7]) [µg/mL] | viability at 1.56 µg/mL [8] [%] | viability at 6.25 µg/mL (HepG2 [9]) [%] | viability at 3.125 µg/mL (HepG2 [10]) [%] | viability at 25 µg/mL [11] [%] | viability at 50 µg/mL (MCF7 [12]) [%] | viability at 6.25 µg/mL [13] [%] | viability at 12.5 µg/mL (MCF7 [14]) [%] | viability at 25 µg/mL (MCF7 [15]) [%] | viability at 25 µg/mL (HepG2 [16]) [%] | viability at 50 µg/mL (HepG2 [18]) [%] | viability at 6.25 µg/mL (MCF7 [19]) [%] | viability at 12.5 µg/mL (HepG2 [20]) [%] | viability at 1.56 µg/mL (HepG2 [21]) [%] | further results
N#CC1=C(N)Oc2c(ccc3cccnc23)C1c1ccc(Cl)cc1 (stereo not drawn) | 100 | 24 (≈ 71.9 µM) | 67.4 | 91.6 | 27.4 | 92.6 | 24.9 (≈ 74.6 µM) | 100 | 68.2 | 68.5 | 48.2 | 26.8 | 76.8 | 72.9 | 49.8 | 57.2 | 52.8 | 82.5 | 63.5 | 79.6 | IC50 (HepG2 [17]): > 50 µg/mL
CN/C=N/C1=C(C#N)C(c2ccc(Cl)cc2)c2ccc3cccnc3c2O1 (stereo not drawn) | 76.8 | 2.3 (≈ 6.14 µM) | 22.2 | 65 | 11.1 | 41.4 | 6.3 (≈ 16.8 µM) | 58.2 | 39 | 45.7 | 13.6 | 16.8 | 29.4 | 29.2 | 21.4 | 17.9 | 9.28 | 50.1 | 30.4 | 52.8 | IC50 (HepG2 [17]): 1.9 µg/mL (≈ 5.07 µM)
CC(=O)NC1=C(C#N)C(c2ccc(Cl)cc2)c2ccc3ccc(C)nc3c2O1 (stereo not drawn) | 96.3 | 14.6 (≈ 37.5 µM) | 53.3 | 86.5 | 22 | 85.2 | 38.6 (≈ 99 µM) | 96.4 | 78.6 | 89.7 | 42.5 | 46.2 | 77.5 | 68.7 | 54 | 35.9 | 23.8 | 76.8 | 60.2 | 100 | IC50 (HepG2 [17]): 17.8 µg/mL (≈ 45.7 µM)
Cc1ccc2ccc3c(c2n1)OC(/N=C/N(C)C)=C(C#N)C3c1ccc(Cl)cc1 (stereo not drawn) | 97 | 28.2 (≈ 70 µM) | 69.7 | 87.2 | 30.5 | 78.7 | 24.4 (≈ 60.6 µM) | 82 | 97.8 | 100 | 53.5 | 35 | 74.2 | 68.2 | 49.6 | 81.5 | 68.2 | 76.9 | 94.7 | 100 | IC50 (HepG2 [17]): > 50 µg/mL
CC[C@]1(O)C[C@@H]2CN(CCc3c([nH]c4ccccc34)[C@@](C(=O)OC)(c3cc4c(cc3OC)N(C)[C@H]3[C@@](O)(C(=O)OC)[C@H](OC(C)=O)[C@]5(CC)C=CCN6CC[C@]43[C@@H]65)C2)C1 [VINBLASTINE] | 76.2 | 2.6 (≈ 3.21 µM) | 28.2 | 60.4 | 16.3 | 47.5 | – | 53.4 | 45.1 | 55 | 21.7 | 7.82 | 38.1 | 29.6 | 15.2 | 16.1 | 14.4 | 48.8 | 24.2 | 72.1 | –
